Consider 25 molecules from paper PMC9246766 (Pharmaceutical research, 2022).

Data set [1] addresses T1, OCT3 (Homo sapiens, UniProt O75751).
T1 sequence (O75751 1-556): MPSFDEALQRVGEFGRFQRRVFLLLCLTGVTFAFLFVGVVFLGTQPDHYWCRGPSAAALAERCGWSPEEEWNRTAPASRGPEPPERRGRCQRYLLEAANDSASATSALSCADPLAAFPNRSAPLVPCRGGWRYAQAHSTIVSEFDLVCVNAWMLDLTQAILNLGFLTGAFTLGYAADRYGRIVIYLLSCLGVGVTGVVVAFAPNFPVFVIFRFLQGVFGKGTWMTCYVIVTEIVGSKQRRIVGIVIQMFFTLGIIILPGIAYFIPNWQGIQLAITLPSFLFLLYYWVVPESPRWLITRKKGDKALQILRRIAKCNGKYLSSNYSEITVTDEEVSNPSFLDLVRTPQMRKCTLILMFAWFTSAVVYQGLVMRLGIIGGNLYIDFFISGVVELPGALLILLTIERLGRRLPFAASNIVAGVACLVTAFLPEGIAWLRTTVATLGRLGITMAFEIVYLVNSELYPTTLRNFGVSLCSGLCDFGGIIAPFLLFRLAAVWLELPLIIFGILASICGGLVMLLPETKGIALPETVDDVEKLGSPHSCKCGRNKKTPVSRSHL
Put plainly: IC50 determination against OCT3-mediated ASP+ uptake in HEK-293 cells overexpressing OCT3. It counts as cell-based.

The conditions of data set [2]: plasma protein binding used for unbound CMAX; source not given; cited from earlier work.
Data set [3] addresses T1, OCT3. Put plainly: High throughput screen: inhibition of OCT3-mediated ASP+ uptake in HEK-293 cells stably expressing OCT3. Type of data set: cell-based. The settings on record: for inhibition at 20 µM: HEK293.
For data set [4] the following is noted: total maximum plasma concentration; ref http://www.micromedexsolutions.com/; cited from earlier work.
The conditions of data set [5]: cited from earlier work; for FDA product insert: warnings, precautions and major adverse reactions: cardiovascular / CNS related, ref FDA product insert; for Neurological Effects (from Literature): ref Pubmed ID of Table SII; for Neurological side effects: stated in discussion, ref Table SII, 60.
Data set [6] deals with T1, OCT3. Put plainly: IC50 determination against OCT3-mediated [14C]metformin uptake in HEK-293 cells overexpressing OCT3. It counts as cell-based.

Usually pIC50 stands for −log10 of the IC50, conventionally taken in molar units. Lower therefore signals a large IC50. As usually defined, the inhibition is the relative decrease from the control value, in per cent. What is called Cmax is the highest concentration seen after dosing.

Structures are written as SMILES. pIC50: −log10 of the molar value. Read-outs that look alike come from different tables or passages of the source.

As for `CNCCCN1c2ccccc2CCc2ccccc21` [desipramine], the pIC50 on OCT3 [1] is 3.75. Further, at OCT3 [1] (HEK293, read-out: Inhibition of OCT3 activity at 20 μM), the inhibition at 20 µM is < 50%.

Take `Cc1oncc1C(=O)Nc1ccc(C(F)(F)F)cc1` [leflunomide]: in data set [2], the Protein binding is on record as 99.3%. At OCT3 [3], the pIC50 was 4.71 and the inhibition at 20 µM is 50.5%. In data set [4], the Cmax is 233000 nM. Moreover, the “FDA product insert: warnings, precautions and major adverse reactions” value (from here on “FDA product insert: warnings”) in data set [5] was “No warnings and precautions regarding to cardiovascular, CNS”.

Consider `COc1ccc2[nH]c([S+]([O-])Cc3ncc(C)c(OC)c3C)nc2c1` (stereo not drawn) [omeprazole], for which the Protein binding in data set [2] is on record as 95%. At OCT3 [3], the pIC50 was 4.95 and the inhibition at 20 µM was found to be 64.1%. For the same molecule, in data set [4], the Cmax is 4200 nM. In data set [5], the “FDA product insert: warnings” value was “No warnings and precautions regarding to cardiovascular, CNS”; the “Neurological Effects (from Literature)” value was “Increase the risk of dementia”.

Take `N=C(N)NC(=O)c1nc(Cl)c(N)nc1N` [amiloride]: the values for the pIC50 at OCT3 [1] and on OCT3 [6] were 4.84 and 5.52, respectively.

`CC(=O)S[C@@H]1CC2=CC(=O)CC[C@]2(C)[C@H]2CC[C@@]3(C)[C@@H](CC[C@@]34CCC(=O)O4)[C@H]12` [spironolactone]: in data set [2], the Protein binding is given as 93%. Besides, at OCT3 [3], the pIC50 was > 5.30 and testing at 20 µM gave an inhibition of 82.8%. For the same molecule, in data set [4], the Cmax is 1100 nM. Further, in data set [5], the “FDA product insert: warnings” value is “No warnings and precautions regarding to cardiovascular, CNS”; the “Neurological Effects (from Literature)” value was “Neurotoxicity, lipophilic and cross the blood brain barrier”.

`CCCNCC(O)COc1ccccc1C(=O)CCc1ccccc1` (stereo not drawn) [propafenone]: the pIC50 on OCT3 [1] was 5.62; against OCT3 [3], 5.15. The inhibition at 20 µM at OCT3 [3] was 74%.

On to `C[C@H]1[C@H](NC(=O)/C(=N\OC(C)(C)C(=O)O)c2csc(N)n2)C(=O)N1S(=O)(=O)O` [aztreonam], for which the Protein binding in data set [2] is reported as 56%. In addition, at OCT3 [3], the pIC50 was > 5.30 and testing at 20 µM gave an inhibition of 87.1%. Further, the Cmax in data set [4] is 585000 nM. In data set [5], the “FDA product insert: warnings” value is “warnings and precautions related to cardiovascular side-effects”; the Neurological side effects entry is on record as “neurological side effects”. In addition, the “FDA product insert: warnings” value in data set [5] (listed as Aztreonam) is “Adverse reaction: Cardiovascular—hypotension, transient ECG changes (ventricular bigeminy and PVC), flushing. Nervous System—seizure, confusion, vertigo, paresthesia, insomnia, dizziness”.

For the molecule `C[C@]12C=CC(=O)C=C1CC[C@@H]1[C@@H]2[C@@H](O)C[C@@]2(C)[C@H]1CC[C@]2(O)C(=O)CO` [prednisolone], the Protein binding in data set [2] is 70%. Besides, at OCT3 [3], the pIC50 is 5.02 and the inhibition at 20 µM came out at 67.5%. The Cmax in data set [4] was 2900 nM. In addition, the “Neurological Effects (from Literature)” value in data set [5] is reported as “Behavirol effects”.

Take `[H]/N=C(\N/C(=N/[H])NCCCCCCNC(=N)NC(=N)Nc1ccc(Cl)cc1)Nc1ccc(Cl)cc1` [chlorhexidine]: the values for the pIC50 against OCT3 [1] and against OCT3 [6] were 5.43 and 6.40, respectively.

In the case of `C=C1C[C@@H]2[C@H](CC[C@]3(C)C(=O)CC[C@@H]23)[C@@]2(C)C=CC(=O)C=C12` [exemestane], the Protein binding in data set [2] is 90%. Further, on OCT3 [3], the pIC50 is > 5.30 and testing at 20 µM gave an inhibition of 94.5%. In data set [4], the Cmax was 1400 nM. Further, in data set [5], the “FDA product insert: warnings” value was “No warnings and precautions regarding to cardiovascular, CNS”.

As to `CCC1=C(C)CN(C(=O)NCCc2ccc(S(=O)(=O)NC(=O)N[C@H]3CC[C@H](C)CC3)cc2)C1=O` [glimepiride], the Protein binding in data set [2] is 99%. At OCT3 [3], the pIC50 was > 5.30 and the inhibition at 20 µM turned out to be 87.7%. The Cmax in data set [4] was 1200 nM. Also, in data set [5], the “FDA product insert: warnings” value is “No warnings and precautions regarding to cardiovascular, CNS. However, oral hypoglycemic reagents are known to increase cardiovascular mortality which may be due to hypoglycemia incidence”.

For the molecule `COc1ccccc1OCCNCC(O)COc1cccc2[nH]c3ccccc3c12` (stereo not drawn) [carvedilol], the pIC50 at OCT3 [1] was 4.71.

The molecule `CC(=O)N1CCN(c2ccc(OCC3COC(Cn4ccnc4)(c4ccc(Cl)cc4Cl)O3)cc2)CC1` (stereo not drawn) [ketoconazole] gave a pIC50 against OCT3 [1] of 6.38. In addition, the Protein binding in data set [2] is 91%. Moreover, at OCT3 [3], the pIC50 was > 5.30 and the inhibition at 20 µM came to 93.4%. Besides, the Cmax in data set [4] was 1900 nM.

With `Cc1ccc(NC(=O)c2ccc(CN3CCN(C)CC3)cc2)cc1Nc1nccc(-c2cccnc2)n1` [imatinib], the Cmax in data set [4] was 1200 nM.

`C=C[C@H]1C[N@@]2CC[C@H]1C[C@H]2[C@H](O)c1ccnc2ccc(OC)cc12` [quinine]: the pIC50 is 5.18 against OCT3 [1] and > 5.30 at OCT3 [3]. The molecule further had an inhibition at 20 µM at OCT3 [3] of 90.6%. The “FDA product insert: warnings” value in data set [5] was “warnings and precautions related to cardiovascular side-effects”; in data set [5] (listed as Quinine) it was “Warnings and precautions: QT prolongation and ventricular arrhythmias. Avoid concomitant use with drugs known to prolong QT interval”.

`CC[C@H]1CN2CCc3cc(OC)c(OC)cc3[C@@H]2C[C@@H]1C[C@H]1NCCc2cc(OC)c(OC)cc21` [emetine]: the Protein binding in data set [2] was 90%. In addition, on OCT3 [3], the pIC50 was > 5.30 and testing at 20 µM gave an inhibition of 82.7%. The Cmax in data set [4] was 600 nM.

`COc1ccc(Cc2nccc3cc(OC)c(OC)cc23)cc1OC` [papaverine]: the pIC50 at OCT3 [1] is 5.39; at OCT3 [6], 5.92.

For `Cc1c(OCC(F)(F)F)ccnc1C[S+]([O-])c1nc2ccccc2[nH]1` (stereo not drawn) [lansoprazole], in data set [2], the Protein binding is on record as 97%. In addition, on OCT3 [3], the pIC50 is > 5.30 and testing at 20 µM gave an inhibition of 87.2%. For the same molecule, in data set [4], the Cmax is 2900 nM. In addition, in data set [5], the “FDA product insert: warnings” value is “No warnings and precautions regarding to cardiovascular, CNS”; the “Neurological Effects (from Literature)” value is reported as “Increase the risk of dementia”.

Turning to `O=C1CCc2cc(OCCCCc3nnnn3C3CCCCC3)ccc2N1` [cilostazol], the Protein binding in data set [2] is 95%. On OCT3 [3], the negative logarithm of the IC50 (pIC50) is > 5.30 and the inhibition at 20 µM amounted to 93.8%. For the same molecule, the Cmax in data set [4] was 2100 nM. Also, the “Neurological Effects (from Literature)” value in data set [5] is recorded as “Cilostazol attenuated blood–brain barrier leakage, Cilostazol (CSZ) was recently found to suppress the progression of cognitive decline in patients with stable AD receiving acetylcholinesterase inhibitors”.

Consider `COc1cc2nc(N3CCN(C(=O)C4COc5ccccc5O4)CC3)nc(N)c2cc1OC` (stereo not drawn) [doxazosin], for which, at OCT3 [1], the negative logarithm of the IC50 (pIC50) was 5.25.

Take `N=C(N)N/N=C/c1c(Cl)cccc1Cl` [guanabenz]: the pIC50 is 5.49 on OCT3 [1] and 5.96 on OCT3 [6].

Regarding `COc1cc(Cc2cnc(N)nc2N)cc(OC)c1OC` [trimethoprim], the Cmax in data set [4] is 5900 nM. Besides, in data set [5], the “FDA product insert: warnings” value is “warnings and precautions related to cardiovascular side-effects”; the “Neurological Effects (from Literature)” value is “Trimethoprim/sulfamethaxazole (TMP-SMX) has been reported to be associated with encephalopathy and psychosis”; the Neurological side effects entry is “neurological side effects”. The “FDA product insert: warnings” value in data set [5] (listed as Trimethoprim) is “Post marketing experience: QT prolongation resulting in ventricular tachycardia and torsade de pointes”.

As to `Cc1onc(-c2ccccc2)c1-c1ccc(S(N)(=O)=O)cc1` [valdecoxib], in data set [2], the Protein binding is recorded as 98%. At OCT3 [3], the pIC50 is 4.76 and 20 µM produced 53.6% inhibition. For the same molecule, the Cmax in data set [4] was 2200 nM. Also, in data set [5], the “Neurological Effects (from Literature)” value is recorded as “Neuroprotective effect, across bbb”.

As for `COCCCOc1ccnc(C[S+]([O-])c2nc3ccccc3[nH]2)c1C` (stereo not drawn) [rabeprazole], the Protein binding in data set [2] is 96%. Besides, on OCT3 [3], the pIC50 is > 5.30 and the inhibition at 20 µM turned out to be 87.3%. The Cmax in data set [4] is 1300 nM. Also, in data set [5], the “FDA product insert: warnings” value was “No warnings and precautions regarding to cardiovascular, CNS”.

Consider `CCCc1nc2c(C)cc(-c3nc4ccccc4n3C)cc2n1Cc1ccc(-c2ccccc2C(=O)O)cc1` [telmisartan], for which the pIC50 against OCT3 [1] is 4.92. For the same molecule, the Protein binding in data set [2] is reported as 99.5%. The same molecule showed an inhibition at 20 µM against OCT3 [3] of 81.6%. In addition, the Cmax in data set [4] is 2800 nM. In data set [5], the “FDA product insert: warnings” value is “No warnings and precautions regarding to cardiovascular, CNS”; the “Neurological Effects (from Literature)” value was “Neuroprotective effect, across bbb”. Further, the pIC50 against OCT3 [6] was 5.41.
